Columns and labels:
Conditions in all cases: 72 h
U2OS [1] = assay: cell viability relative to DMSO; higher = less toxic
Vero E6 [2] = assay: as above
Caco-2 [3] = assay: as above
Calu-3 [4] = assay: as above
HepG2 [5] = assay: as above
Calu-3 [6] = assay: relative viability EC50 (midpoint between 100% and the lowest measured viability); higher = less toxic
HepG2 [7] = assay: as above
U2OS [8] = assay: drug sensitivity score (DSS) for viability; higher = more toxic; extreme values may be limits of the assay
Vero E6 [9] = assay: as above
Caco-2 [10] = assay: as above
Calu-3 [11] = assay: as above
HepG2 [12] = assay: as above
U2OS [13] = assay: relative viability EC50 (midpoint between 100% and the lowest measured viability); higher = less toxic
Vero E6 [14] = assay: as above

SMILES	cell viability (U2OS [1]; 1 nM) [%]	cell viability (U2OS [1]; 10 nM) [%]	cell viability (U2OS [1]; 100 nM) [%]	cell viability (U2OS [1]; 1000 nM) [%]	cell viability (U2OS [1]; 10000 nM) [%]	cell viability (Vero E6 [2]; 1 nM) [%]	cell viability (Vero E6 [2]; 10 nM) [%]	cell viability (Vero E6 [2]; 100 nM) [%]	cell viability (Vero E6 [2]; 1000 nM) [%]	cell viability (Vero E6 [2]; 10000 nM) [%]	cell viability (Caco-2 [3]; 1 nM) [%]	cell viability (Caco-2 [3]; 10 nM) [%]	cell viability (Caco-2 [3]; 100 nM) [%]	cell viability (Caco-2 [3]; 1000 nM) [%]	cell viability (Caco-2 [3]; 10000 nM) [%]	cell viability (Calu-3 [4]; 1 nM) [%]	cell viability (Calu-3 [4]; 10 nM) [%]	cell viability (Calu-3 [4]; 100 nM) [%]	cell viability (Calu-3 [4]; 1000 nM) [%]	cell viability (Calu-3 [4]; 10000 nM) [%]	cell viability (HepG2 [5]; 1 nM) [%]	cell viability (HepG2 [5]; 10 nM) [%]	cell viability (HepG2 [5]; 100 nM) [%]	cell viability (HepG2 [5]; 1000 nM) [%]	cell viability (HepG2 [5]; 10000 nM) [%]	relative viability EC50 (Calu-3 [6]) [µM]	relative viability EC50 (HepG2 [7]) [µM]	drug sensitivity score (U2OS [8])	drug sensitivity score (Vero E6 [9])	drug sensitivity score (Caco-2 [10])	drug sensitivity score (Calu-3 [11])	drug sensitivity score (HepG2 [12])	relative viability EC50 (U2OS [13]) [µM]	relative viability EC50 (Vero E6 [14]) [µM]
Cc1cc(I)ccc1Nc1c(C(=O)NOCC2CC2)cc(F)c(F)c1F	100	97.1	99.8	89.6	74.7	89.6	100	90.4	77	52.6	93.3	99.5	98.3	75	54.8	97.2	100	103	80.3	45.1	88.7	107	94	55.5	21.1	1.26	0.814	2.3	5.2	5.2	5.7	9.7		
N.N.[Cl][Pt][Cl] [cisplatin]																												0	0		0.2	0		
CCOC(=O)[C@H](CCc1ccccc1)N[C@@H](C)C(=O)N1[C@H](C(=O)O)C[C@@H]2CCC[C@@H]21 [ramipril]																												0	0		0	0		
OCCNC1CCCc2c1[nH]c1ccc(-c3ccccc3)cc21 (stereo not drawn) [casin]	107	102	105	102	79	102	106	106	98.9	77.7	106	97.4	99.4	96.3	69.8	96.3	97.4	97.1	106	69.1	94.7	97.6	87.5	94.7	52.4			0.5	0.9	1.9	1.1	3.4	> 10	> 10
C[C@@H]1CCCN1CCc1cc2cc(-c3ccc(C#N)cc3)ccc2o1 [ABT-239]	96.3	101	97.9	102	87	89.8	94.9	92	91.2	91.8	86.8	106	93.4	97.2	68.1	95.5	96.1	106	111	58.9	105	92.9	94.8	90.9	75.9		> 10	0.1	0	1.9	1.5	1.4	> 10	> 10
COc1ccc(CCCO[C@@H](Cn2ccnc2)c2ccc(OC)cc2)cc1	97.4	96.7	99.3	99.4	35.9	94.5	104	96.5	98	50.1	93.4	95	100	93.5	52.6						101	104	95.4	106	34		3.59	3.6	2.9	3.6		3.2	3.1	
Cc1cc(C)nc(NS(=O)(=O)c2ccc(N)cc2)n1 [sulfamethazine]																												0	0		0	0		
CCn1c(-c2nonc2N)nc2c(C#CC(C)(C)O)ncc(OC[C@H]3CCCNC3)c21	96.3	93.3	98.1	87.5	85.9	96.5	96	95.5	95.1	111	92.9	86.7	101	72.1	69.3	102	98.2	92.2	69.5	73.5	94.8	98.1	96.5	94.5	99.4		> 10	0.3	0	4.7	6.3	0	> 10	> 10

Reference: the supplement of paper PMC13380429
